From patent EP4628074A1, “N-PALMITOYLETHANOLAMIDE FOR USE IN COMBINATION WITH A NON-STEROIDAL ANTI-INFLAMMATORY DRUG IN THE TREATMENT OF INFLAMMATORY PAIN” (priority 2024, dated 2025)
Several values for one entry are separate records, joined by “and”; a condition that tells them apart may be missing. Equal values may be shown once. Entries after “also recorded” stand apart in the source; their conditions may differ.

Columns and labels:
[1] = tested on: inflammatory pain induced by sub-plantar injection of carrageenan; test: Von Frey filaments, inflammatory pain induced by sub-plantar injection of carrageenan (Experiment 3); assay type: in vivo, adult male Sprague-Dawley rats
Method: The experimental inflammatory pain model was induced through a sub-plantar injection of carrageenan (CAR) saline solution (0.1 mL of a 1% suspension of CAR in 0.85% saline). […] The PEA used in this experiment was in unprocessed (native) form. Von Frey filaments were used to evaluate pain, recording for each animal the mechanical tolerance threshold, i.e. the pressure (expressed in grams) endured before retracting the paw. The measurement took place using an analgesimeter (Ugo Basile, Comerio, Varese, Italy) and was conducted before the sub-plantar injection of the CAR and at the time of maximum damage (5 hours later).
(§1) The effect on pain was analyzed using Generalized Linear Model (GLM) followed by post-hoc analysis based on Tukey-Kramer correction for multiple comparisons. […] All analyses were performed using SAS software, version 9.4 (SAS Institute, Cary, NC, USA). P value < 0.05 was considered significant.

[2] = tested on: collagen-induced arthritis; test: Arthritis severity score in collagen-induced arthritis (CIA) (Experiment 2); assay type: in vivo, Female Lewis rats; details: PEA 30 mg/kg; for Pr > F: 2x2 factor analysis on severity of arthritis, ibuprofen 5 mg/kg, PEA*IBU = interaction (synergy)
Method: Rheumatoid arthritis is a disease characterized by inflammatory pain, in which the involved joints present swelling, stiffness and often erosive processes. Female Lewis rats were maintained on a 12/12 hour light/dark cycle, at constant temperature and humidity and acclimated for 1 week, with free access to water and standard diet. […] Arthritis score, change in paw volume (mL), and change in body weight (g) were measured as indicators of inflammatory pain. Arthritis severity was measured every other day starting on day 25, using the following score: 0 = no sign of arthritis; 1 = swelling and/or redness of the paw or toe; 2 = two joints involved; 3 = more than two joints involved; and 4 = severe arthritis of the entire paw and toes. The arthritis index for each subject was calculated by adding the four scores of the individual paws. The change in paw volume compared to day 21 was assessed every two days by plethysmometry (Ugo Basile) starting from day 25. The change in weight was measured for each animal on day 21 and then every two days starting from day 25.
as §1, with “The chosen inflammatory” for “The effect on”, “pain indicators were” for “pain was”, “analyzed via” for “analyzed using”, “All analyzes” for “All analyses”

[3] = in vivo; cited from earlier work
[4] = tested on: CFA-induced inflammatory pain; test: Paw pressure test, CFA-induced inflammatory pain, single (acute) oral administration (Experiment 1); assay type: in vivo, male Sprague-Dawley rats; details: for Pr > F: PEA 10 mg/kg
Excerpt: In the in vivo experimentation, male Sprague-Dawley rats (200-250 g) (Envigo, Varese, Italy) fed "ad libitum" and housed in cages with a controlled sleep/wake cycle were used.
Before the start of the study, the animals were subjected to a 1-week acclimatization period at the Center for Laboratory Animal Sheltering (Ce.S.A.L.) of the University of Florence, following all experimental procedures and protocols compliant with the principles of care and welfare of laboratory animals approved by the Italian Ministry of Health (Italian Legislative Decree 2014/26), European directives (EU Directive 2010/63) and the ARRIVE guidelines.
In order to cause inflammatory pain, Complete Freund's Adjuvant (CFA) was injected at a rate of 50 µL into the joint cavity of the left leg between the tibiofibular and tarsal bones after light anesthesia with 2% isoflurane. The control group was subjected to the same procedure, injecting an equal volume of saline solution (vehicle).
The animals were divided into 9 groups of 6 rats each and treated acutely per os with a single administration, starting from the seventh day after the induction of joint damage. • Group 1: healthy rats subjected to intra-articular injection of saline (vehicle group) • Group 2: rats injected with CFA and treated with 1% CMC, corresponding to the vehicle in which the compounds for the treatments of the following groups were suspended (CFA group); • Group 3: rats injected with CFA and treated with micronized PEA 10 mg/kg; • Group 4: rats injected with CFA and treated with diclofenac 30 mg/kg; • Group 5: rats injected with CFA and treated with diclofenac 3 mg/kg; • Group 6: rats injected with CFA and treated with diclofenac 3 mg/kg + micronized PEA 10 mg/kg; • Group 7: rats injected with CFA and treated with meloxicam 30 mg/kg; • Group 8: rats injected with CFA and treated with meloxicam 3 mg/kg; • Group 9: rats injected with CFA and treated with meloxicam 3 mg/kg + micronized PEA 10 mg/kg.
All animals were subjected to the paw pressure test at the level of the ipsilateral paw, performed before (T0) or after 15, 30, 45 and 60 minutes after the single administration of the treatment (T15, T30, T45 and T60, respectively). In particular, the nociceptive threshold was calculated with an analgesiometer (Ugo Basile, Varese, Italy) by applying an increasing pressure at constant speed (32 g/s) by means of a non-pointed conical support on the dorsal surface of the ipsilateral paw with respect to the injection of CFA (or vehicle). The nociceptive threshold was expressed as the force (in decagrams, dag) to which the animal reacts by retracting the paw or vocalizing (Leighton GE et al. kappa-Opioid agonists produce antinociception after i.v. and i.c.v. but not intrathecal administration in the rat. Br J Pharmacol. 1988; 93: 553-60).
The values emerged from the paw pressure test in the different treatment groups were compared with each other using the Generalized Linear Mixed Model (GLMM) followed by post-hoc analysis based on Tukey-Kramer correction for multiple comparisons, referring to the single treatment group, considering all the times.
The AUC was analyzed by a two-way factor analysis of variance (2x2 ANOVA), after plotting the mean values, according to the procedure shown by Slinker BK. The statistics of synergism. J Mol Cell Cardiol. 1998 Apr;30(4):723-31. The values were expressed as mean ± standard error mean (SEM). All the statistical analyses were carried out using the software SAS, version 9.4 (SAS Institute, Cary, NC, USA). The value p < 0.05 was considered significant.

CCCCCCCCCCCCCCCC(=O)NCCO [PEA, N-palmitoylethanolamide]
Pr > F ([1]; 2x2 factorial analysis on tolerance threshold (Von Frey), native PEA 100 mg/kg, ibuprofen 5 mg/kg, PEA*Ibu = interaction (synergy)): 0,0046
mechanical tolerance threshold compared to the vehicle-treated group ([1]; single oral administration 30 minutes before carrageenan, measured 5 hours later, unprocessed (native) PEA 100 mg/kg and/or ibuprofen 5 mg/kg): inactive dose
Pr > F ([2]; Giorno 33): <0,0001
Pr > F ([2]; Giorno 35): <0,0001
effect on arthritis score ([2]; day 31 up to end of study (day 35), oral from day 25, low-dose IBU 5 mg/kg, high-dose IBU 30 mg/kg): had no effect
dose free of acute and sub-chronic toxicity [3]: ≥ 1000 mg/kg daily
Pr > F ([4]; ANOVA 2x2 on AUC of paw pressure test (Figure 2), diclofenac 3 mg/kg, line PEA*Dicl 3 = interaction (synergy)): 0.0002
Pr > F ([4]; ANOVA 2x2 on AUC of paw pressure test (Figure 4), meloxicam 3 mg/kg, line PEA*Mel 3 = interaction (synergy)): 0.0003
p with respect to the CFA group (pain tolerance threshold) ([4]; CFA-injected rats, single per os administration on day 7, micronized PEA 10 mg/kg and/or NSAID 3 mg/kg, GLMM with Tukey-Kramer): 0.9674 and 0.9588
pain tolerance threshold with respect to the CFA group ([4]; CFA-injected rats, single per os administration on day 7 after CFA, micronized PEA 10 mg/kg and/or NSAID 3 mg/kg, T0-T60 min, all times considered): no significant difference; also recorded: no significant effect
